Results as given in US4697012A, “Morpholino pyridyl thiazole compound” (Merck & Co., Inc., priority 1984, dated 1987).
Where a name gives a salt, the structure may show the parent alone.

Tested on: footpad swelling (SRBC challenge)
Assay: Delayed Hypersensitivity Assay (SRBC-sensitized mice, footpad swelling)
Assay type: in vivo, female BALB/C mice
Conditions: Mus musculus, one hour prior to challenge, 24 hrs post challenge, read-out: Inhibition % (percent inhibition of footpad swelling); for inhibition in vivo at 0.01 mg/kg: dosage 0.01 mg/kg p.o.; for inhibition in vivo at 0.1 mg/kg: dosage 0.1 mg/kg p.o.; for inhibition in vivo at 10 mg/kg: dosage 10.0 mg/kg p.o.; for inhibition in vivo at 100 mg/kg: dosage 100.0 mg/kg p.o.; for inhibition in vivo at 10 µg/mL / inhibition in vivo at 100 µg/mL / inhibition in vivo at 10000 µg/mL / inhibition in vivo at 100000 µg/mL: Table II; for inhibition in vivo at 10 µg/mL: dosage 0.01 (mg/ml as printed) p.o.; for inhibition in vivo at 100 µg/mL: dosage 0.1 (mg/ml as printed) p.o.; for inhibition in vivo at 10000 µg/mL: dosage 10.0 (mg/ml as printed) p.o.; for inhibition in vivo at 100000 µg/mL: dosage 100.0 (mg/ml as printed) p.o.; for inhibition in vivo at 1 mg/kg: dosage 1.0 mg/kg p.o.
Method: Animals (female BALB/C mice) are sensitized with 5×10^5 SRBC(sheep red blood cells)/0.5 ml by intravenous (tail vein) injection. One hour prior to challenge, animals are dosed with the drugs in question, p.o. On day four the animals are challenged with 5×10^8 SRBC/0.05 ml in the hind foot pad. Footpad volume is measured by a mercury displacement apparatus before challenge and 24 hrs post challenge. Percent inhibition of footpad swelling is calculated by comparing the increase in footpad volume of test group to the control group.

Nc1ccccc1Cc1nc(-c2ccncc2)cs1 [o-NH2, 2-(o-Aminobenzyl)-4-(4-pyridyl)thiazole]
inhibition in vivo at 0.01 mg/kg (po, Table I): 82.2%
inhibition in vivo at 0.1 mg/kg (po, Table I): 93.6%
inhibition in vivo at 10 mg/kg (po, Table I): 52.8%

Cc1cccc(Cc2nc(-c3ccncc3)cs2)c1 [m-CH3, 2-(m-methyl-benzyl)-4-(4-pyridyl)thiazole dihydrochloride]
inhibition in vivo at 0.1 mg/kg (po, Table I): 49.1%
inhibition in vivo at 10 mg/kg (po, Table I): 64.8%
inhibition in vivo at 100 mg/kg (po, Table I): 71.2%

Clc1cc(-c2csc(Cc3ccccc3)n2)ccn1 [Example 2-Cl, 2-Benzyl-4-(2-chloro-4-pyridyl)thiazole]
inhibition in vivo at 10 µg/mL: 52.6%
inhibition in vivo at 100 µg/mL: 64.7%
inhibition in vivo at 10000 µg/mL: 77.6%
inhibition in vivo at 100000 µg/mL: 80.1%

[O-][n+]1ccc(-c2csc(Cc3ccccc3)n2)cc1 [Noxide, 4-[2-(Phenylmethyl)-4-thiazolyl]pyridine-1-oxide]
inhibition in vivo at 10 µg/mL: 46%
inhibition in vivo at 100 µg/mL: 55.6%
inhibition in vivo at 10000 µg/mL: 71.8%
inhibition in vivo at 100000 µg/mL: 93.4%

O=CC(c1ccccc1)c1nc(-c2ccncc2)cs1 (stereo not drawn) [CHO]
inhibition in vivo at 10 mg/kg (po, Table I): 63%

c1ccc(Cc2nc(-c3ccncc3)cs2)cc1 [H, 2-Benzyl-4-(4-pyridyl)thiazole]
inhibition in vivo at 0.01 mg/kg (po, Table I): 21.8%
inhibition in vivo at 0.1 mg/kg (po, Table I): 70.2%
inhibition in vivo at 30 mg/kg (po, Table I, dosage 30 mg/kg p.o.): 75.2%

c1ccc(Cc2nc(-c3ccnc(N4CCOCC4)c3)cs2)cc1 [Example 2-morpholino]
inhibition in vivo at 10 µg/mL: 26.1%
inhibition in vivo at 100 µg/mL: 33.8%
inhibition in vivo at 10000 µg/mL: 44.3%
inhibition in vivo at 100000 µg/mL: 45.1%

N#Cc1cc(-c2csc(Cc3ccccc3)n2)ccn1 [Example 2-CN]
inhibition in vivo at 10000 µg/mL: 36.6%

N#CC(c1ccccc1)c1nc(-c2ccncc2)cs1 (stereo not drawn) [CN, 2-Phenyl-2-[4-(4-pyridyl)-2-thiazolyl]acetonitrile]
inhibition in vivo at 0.1 mg/kg (po, Table I): 58%
inhibition in vivo at 1 mg/kg (po, Table I): 46%

Fc1ccc(Cc2nc(-c3ccncc3)cs2)cc1 [PF, 2-(p-fluoro-benzyl)-4-(4-pyridyl)thiazole]
inhibition in vivo at 0.1 mg/kg (po, Table I): 11.7%
inhibition in vivo at 1 mg/kg (po, Table I): 60.8%
inhibition in vivo at 10 mg/kg (po, Table I): 40.9%

OC(c1ccccc1)c1nc(-c2ccncc2)cs1 (stereo not drawn) [OH, 1-Phenyl-1-[4-(4-pyridyl)-2-thiazolyl]methanol]
inhibition in vivo at 0.1 mg/kg (po, Table I): 32%
inhibition in vivo at 1 mg/kg (po, Table I): 31%
inhibition in vivo at 10 mg/kg (po, Table I): 55%

Oc1ccccc1Cc1nc(-c2ccncc2)cs1 [o-OH]
inhibition in vivo at 0.01 mg/kg (po, Table I): 15.1%
inhibition in vivo at 0.1 mg/kg (po, Table I): 16.4%

CC(=O)Nc1ccccc1Cc1nc(-c2ccncc2)cs1 [o-NHCOCH3, 2-(o-acetamidobenzyl)-4-(4-pyridyl)thiazole]
inhibition in vivo at 0.1 mg/kg (po, Table I): 32.6%
inhibition in vivo at 10 mg/kg (po, Table I): 52.8%
inhibition in vivo at 100 mg/kg (po, Table I): 75.5%

FC(F)(c1ccccc1)c1nc(-c2ccncc2)cs1 [F,F, 1,1-Difluoro-1-phenyl-1-[4-(4-pyridyl)-2-thiazolyl]-methane]
inhibition in vivo at 1 mg/kg (po, Table I): 49%
inhibition in vivo at 10 mg/kg (po, Table I): 63%

c1ccc(-c2ccc(Cc3nc(-c4ccncc4)cs3)cc2)cc1 [p-C6 H5]
inhibition in vivo at 10 mg/kg (po, Table I): 36.4%

NC(=O)Nc1ccccc1Cc1nc(-c2ccncc2)cs1 [o-NHCONH2]
inhibition in vivo at 0.01 mg/kg (po, Table I): 40.4%
inhibition in vivo at 10 mg/kg (po, Table I): 31.4%

O=[N+]([O-])c1ccc(Cc2nc(-c3ccncc3)cs2)cc1 [p-NO2, 2-(p-Nitrobenzyl)-4-(4-pyridyl)thiazole]
inhibition in vivo at 0.01 mg/kg (po, Table I): 32.4%
inhibition in vivo at 0.1 mg/kg (po, Table I): 40.6%
inhibition in vivo at 10 mg/kg (po, Table I): 65.2%
inhibition in vivo at 100 mg/kg (po, Table I): 82.2%

OCC(c1ccccc1)c1nc(-c2ccncc2)cs1 (stereo not drawn) [CH2 OH, 2-Phenyl-2-[4-(4-pyridyl)-2-thiazolyl] ethanol]
inhibition in vivo at 0.1 mg/kg (po, Table I): 51%
inhibition in vivo at 1 mg/kg (po, Table I): 65%
inhibition in vivo at 10 mg/kg (po, Table I): 27%
